From BindingDB's records for PubMed 2419545 (National Institutes of Health, 1986)
Changes are numbered by the printed parent chain. Where “and” joins values, the source holds several entries; their conditions need not be identical. Identical values can stand only once. Residues, ends and D or L forms follow the SMILES beside them.

Experiments:
Substance P = Substance P (Cavia porcellus, UniProt P67932)
Eledoisin = Eledoisin (Eledone moschata, UniProt P62934)
Substance-K receptor = target: T1, Substance-K receptor (Cavia porcellus, UniProt Q64077)
T1 sequence (Q64077 whole entry): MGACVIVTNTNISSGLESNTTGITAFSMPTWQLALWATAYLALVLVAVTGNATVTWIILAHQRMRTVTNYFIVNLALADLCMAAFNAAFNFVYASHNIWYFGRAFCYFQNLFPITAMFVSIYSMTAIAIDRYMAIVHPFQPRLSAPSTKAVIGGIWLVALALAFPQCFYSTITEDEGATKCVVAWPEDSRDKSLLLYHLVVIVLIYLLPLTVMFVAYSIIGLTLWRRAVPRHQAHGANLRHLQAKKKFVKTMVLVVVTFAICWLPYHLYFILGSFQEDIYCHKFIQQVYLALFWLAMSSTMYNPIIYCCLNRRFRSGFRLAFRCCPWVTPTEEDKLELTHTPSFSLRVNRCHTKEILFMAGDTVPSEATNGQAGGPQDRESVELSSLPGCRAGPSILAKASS

[1] = target: Class E basic helix-loop-helix protein 22 (Mus musculus, UniProt Q8C6A8)
ATP synthase subunit a = target: T2, ATP synthase subunit a (Rattus norvegicus, UniProt P05504)
T2 sequence (P05504 whole entry): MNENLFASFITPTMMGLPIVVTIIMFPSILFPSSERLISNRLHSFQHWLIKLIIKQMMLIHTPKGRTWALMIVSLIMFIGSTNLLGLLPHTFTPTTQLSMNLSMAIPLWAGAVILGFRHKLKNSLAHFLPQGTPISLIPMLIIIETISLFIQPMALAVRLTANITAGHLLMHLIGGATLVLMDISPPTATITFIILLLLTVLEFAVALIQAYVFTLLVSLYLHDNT

Protachykinin-1 [2] = target: T3, Protachykinin-1 (Mus musculus, UniProt P41539)
T3 sequence (P41539 whole entry): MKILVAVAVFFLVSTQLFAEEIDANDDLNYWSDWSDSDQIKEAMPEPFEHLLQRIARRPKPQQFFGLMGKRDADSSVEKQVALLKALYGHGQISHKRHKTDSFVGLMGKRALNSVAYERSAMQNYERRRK

Protachykinin-1 [3] = target: T4, Protachykinin-1 (Rattus norvegicus, UniProt P06767)
T4 sequence (P06767 whole entry): T3 sequence (P41539 whole entry) with D23G, V77I

Sequence of Class E basic helix-loop-helix protein 22 (Q8C6A8 whole entry): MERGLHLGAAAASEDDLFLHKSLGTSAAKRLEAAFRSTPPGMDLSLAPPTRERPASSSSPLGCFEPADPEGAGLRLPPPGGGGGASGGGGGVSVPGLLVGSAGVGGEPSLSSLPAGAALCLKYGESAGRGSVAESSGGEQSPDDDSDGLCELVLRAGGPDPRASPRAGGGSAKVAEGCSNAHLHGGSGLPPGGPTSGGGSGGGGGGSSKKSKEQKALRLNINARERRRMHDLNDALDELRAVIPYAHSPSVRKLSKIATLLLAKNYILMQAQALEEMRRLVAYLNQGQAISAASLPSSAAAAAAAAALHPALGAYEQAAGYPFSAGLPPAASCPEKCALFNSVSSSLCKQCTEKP

| Compound | Ki (Substance P) [nM] | Ki (Eledoisin) [nM] | Ki (Substance-K receptor) [nM] | Ki [1] [nM] | Ki (ATP synthase subunit a) | Ki (Protachykinin-1 [2]) | Ki (Protachykinin-1 [3]) |
| --- | --- | --- | --- | --- | --- | --- | --- |
| CSCC[C@H](NC(=O)[C@H](CC(C)C)NC(=O)CNC(=O)[C@H](Cc1ccccc1)NC(=O)[C@H](Cc1ccccc1)NC(=O)[C@H](CCC(N)=O)NC(=O)[C@H](CCC(N)=O)NC(=O)[C@@H]1CCCN1C(=O)[C@H](CCCCN)NC(=O)[C@@H]1CCCN1C(=O)[C@@H](N)CCCN=C(N)N)C(N)=O [Arg-Pro-Lys-Pro-Gln-Gln-Phe-Phe-Gly-Leu-Met NH2] | 0.2 | 19 | 200 | 47 | 106 nM and 21 nM | – | – |
| CSCC[C@H](NC(=O)[C@H](CC(C)C)NC(=O)CNC(=O)[C@@H](NC(=O)[C@H](Cc1ccccc1)NC(=O)[C@H](CO)NC(=O)[C@H](CC(=O)O)NC(=O)[C@@H](NC(=O)[C@H](CCCCN)NC(=O)[C@@H](N)Cc1cnc[nH]1)[C@@H](C)O)C(C)C)C(N)=O [Neurokinin alpha] | 8 | 10 | 1.3 | 0.5 | – | 1 nM and 4 nM | 1.3 nM and 4.6 nM |
| CSCC[C@H](NC(=O)[C@H](CC(C)C)NC(=O)CNC(=O)[C@H](Cc1ccc(O)cc1)NC(=O)[C@H](Cc1ccccc1)NC(=O)[C@H](CCCCN)NC(=O)[C@H](CC(N)=O)NC(=O)[C@@H]1CCCN1C(=O)[C@H](CC(=O)O)NC(=O)[C@H](C)NC(=O)[C@@H]1CCC(=O)N1)C(N)=O [physalaemin] (HELM PEPTIDE1{[Glp].A.D.P.N.K.F.Y.G.L.M.[am]}$$$$V2.0) | 0.7 | 14 | 340 | 17 | 23 nM and 30 nM | 175 nM | – |
| CSCC[C@H](NC(=O)[C@H](CC(C)C)NC(=O)CNC(=O)[C@@H](NC(=O)[C@H](Cc1ccccc1)NC(=O)[C@H](Cc1ccccc1)NC(=O)[C@H](CC(=O)O)NC(=O)[C@H](Cc1c[nH]cn1)NC(=O)[C@H](CCSC)NC(=O)[C@@H](N)CC(=O)O)C(C)C)C(N)=O [NSC_5311312] | 35 | 17 | 200 | 10 | 4.7 nM and 6 nM | 20 nM and 80 nM | 50 nM and 56 nM |
| CC[C@H](C)[C@H](NC(=O)[C@H](Cc1ccccc1)NC(=O)[C@H](C)NC(=O)[C@H](CC(=O)O)NC(=O)[C@H](CCCCN)NC(=O)[C@H](CO)NC(=O)[C@@H]1CCCN1C(=O)[C@@H]1CCC(=O)N1)C(=O)NCC(=O)N[C@@H](CC(C)C)C(=O)N[C@@H](CCSC)C(N)=O (HELM PEPTIDE1{[Glp].P.S.K.D.A.F.I.G.L.M.[am]}$$$$V2.0) | 9 | 2.2 | 15 | – | 4.2 nM and 3 nM | 9 nM and 5 nM | 16 nM and 9 nM |
| H-DVPKSDQFVGLM-NH2 [CAS_45749] | 9 | 2.6 | 11 | 0.5 | 4.1 nM and 1.9 nM | 7 nM | 6 nM and 9 nM |
